What was measured:
Assay in all cases: relative viability (nuclei count vs DMSO), 5 days (fraction); higher = more cells survive
[1] = compound: Cc1cnc(Nc2ccc(OCCN3CCCC3)cc2)nc1Nc1cccc(S(=O)(=O)NC(C)(C)C)c1 [Fedratinib] + Nc1nc2[nH]cc(CCc3ccc(C(=O)N[C@@H](CCC(=O)O)C(=O)O)cc3)c2c(=O)[nH]1 [Pemetrexed] (partner 0.2 µM)
Procedure, shortened: (§1)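 After 5 days of treatment, lung cancer cells in 1536-well plates were fixed and stained in a single step (final 0.05% Triton X-100, 1% formaldehyde, 1 ug/ml Hoechst) and their nuclei counted on 4× images. Treatment had been applied by pin tool the day after seeding as one drug alone or as a fixed anchor-drug dose with five library-drug doses (not always all listed) in √10 steps. Relative viability is the nuclei count of treated wells divided by that of vehicle wells, and values are medians of duplicate plates.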

[2] = compound: COC1=CC=C(C=C1)COC2=C(C=C(C=C2)CC3=CN=C(N=C3N)N)OC [GW-2580] + N=C(N)NC(=N)NCCc1ccccc1 [Phenformin] (partner 250 µM)
Procedure, shortened: as §1

[3] = compound: COC1=CC=C(C=C1)COC2=C(C=C(C=C2)CC3=CN=C(N=C3N)N)OC [GW-2580] + COc1cccc2cc(-c3nc([C@H]4CC[C@H](C(=O)O)CC4)n4ncnc(N)c34)[nH]c12 [OSI-027] (partner 0.5 µM)
Procedure, shortened: as §1

[4] = compound: COC1=CC=C(C=C1)COC2=C(C=C(C=C2)CC3=CN=C(N=C3N)N)OC [GW-2580] + Cc1cc(Nc2cc(N3CCN(C)CC3)nc(Sc3ccc(NC(=O)C4CC4)cc3)n2)n[nH]1 [Tozasertib] (partner 0.1 µM)
Procedure, shortened: as §1

[5] = compound: COC1=CC=C(C=C1)COC2=C(C=C(C=C2)CC3=CN=C(N=C3N)N)OC [GW-2580] + C[C@]1(O)C[C@@H](c2nc(-c3ccc4ccc(-c5ccccc5)nc4c3)c3c(N)nccn32)C1 [Linsitinib] (partner 1 µM)
Procedure, shortened: as §1

Row | Cell Line | relative viability ([1]; first compound 0.1 µM) | relative viability ([1]; first compound 0.3162 µM) | relative viability ([1]; first compound 1 µM) | relative viability ([2]; first compound 0.08 µM) | relative viability ([2]; first compound 0.8 µM) | relative viability ([2]; first compound 2.53 µM) | relative viability ([2]; first compound 8 µM) | relative viability ([3]; first compound 0.08 µM) | relative viability ([3]; first compound 0.8 µM) | relative viability ([3]; first compound 2.53 µM) | relative viability ([3]; first compound 8 µM) | relative viability ([4]; first compound 0.08 µM) | relative viability ([4]; first compound 0.8 µM) | relative viability ([4]; first compound 2.53 µM) | relative viability ([4]; first compound 8 µM) | relative viability ([5]; first compound 0.08 µM) | relative viability ([5]; first compound 0.8 µM) | relative viability ([5]; first compound 2.53 µM) | relative viability ([5]; first compound 8 µM)
1 | NCI-H1437 | 0.244 | 0.309 | 0.313 | 0.339 | 0.31 | 0.332 | 0.357 | 0.943 | 0.864 | 0.889 | 0.85 | 0.412 | 0.433 | 0.405 | 0.291 | 1.08 | 1.3 | 0.942 | 0.728
2 | COR-L23 | 0.177 | 0.218 | 0.184 | 0.458 | 0.53 | 0.478 | 0.463 | 1.01 | 0.994 | 0.655 | 0.753 | 0.209 | 0.202 | 0.179 | 0.185 | 0.987 | 1.2 | 0.946 | 1.02
3 | ABC-1 | – | – | – | 0.236 | 0.226 | 0.234 | 0.224 | 0.471 | 0.533 | 0.502 | 0.53 | 0.157 | 0.147 | 0.179 | 0.193 | 0.791 | 0.816 | 0.883 | 0.718
4 | NCI-H522 | 0.767 | 0.951 | 0.902 | 0.659 | 0.638 | 0.959 | 0.754 | 0.688 | 0.618 | 0.845 | 0.723 | 0.551 | 0.579 | 0.318 | 0.541 | – | – | – | –
5 | NCI-H838 | 0.236 | 0.224 | 0.225 | 0.651 | 0.59 | 0.549 | 0.648 | 0.413 | 0.428 | 0.472 | 0.431 | 0.291 | 0.341 | 0.295 | 0.248 | 1.14 | 1.19 | 1.01 | 1.06
